Assay results published in ChEMBL document CHEMBL1201862, “PubChem BioAssay data set” (2004).
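Following 48 hours of exposure in 96-well plates, responses at five concentrations were used to interpolate endpoints linearly. GI50 marks 50% less growth.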 Activity calls are given as the source filed them. Cut-off read from the data, not from the text of the source: active = GI50 up to about 1.1 µM and inactive = higher.

How the values were obtained:
Experiment in all cases: NCI-60 cell line screen, 48 h
LOX IMVI = test system: LOX IMVI
KM12 = test system: KM12
RPMI-8226 = test system: RPMI-8226
NCI-H460 = test system: NCI-H460
SNB-19 = test system: SNB-19
MOLT-4 = test system: MOLT-4
SK-MEL-28 = test system: SK-MEL-28
UO-31 = test system: UO-31
CCRF-CEM = test system: CCRF-CEM
RXF 393 = test system: RXF 393
TK-10 = test system: TK-10
HCT-116 = test system: HCT-116
M14 = test system: M14
KM-20L2 = test system: KM-20L2
SR = test system: SR
DMS-273 = test system: DMS-273
OVCAR-4 = test system: OVCAR-4
NCI-H522 = test system: NCI-H522
SW-620 = test system: SW-620
M19-MEL = test system: M19-MEL
SK-MEL-5 = test system: SK-MEL-5
UACC-257 = test system: UACC-257
OVCAR-8 = test system: OVCAR-8
SF-268 = test system: SF-268
HOP-62 = test system: HOP-62
LXFL 529 = test system: LXFL 529
HCC 2998 = test system: HCC 2998
HT-29 = test system: HT-29
CAKI-1 = test system: CAKI-1
SNB-75 = test system: SNB-75
SN12C = test system: SN12C
ACHN = test system: ACHN
EKVX = test system: EKVX
DMS-114 = test system: DMS-114
A549 = test system: A549
U-251 = test system: U-251
OVCAR-5 = test system: OVCAR-5
K562 = test system: K562
UACC-62 = test system: UACC-62
HL-60 = test system: HL-60
COLO 205 = test system: COLO 205
SF-295 = test system: SF-295
SK-MEL-2 = test system: SK-MEL-2
SK-OV-3 = test system: SK-OV-3
IGROV-1 = test system: IGROV-1
786-0 = test system: 786-0
HCT-15 = test system: HCT-15
HOP-92 = test system: HOP-92
DLD-1 = test system: DLD-1
NCI-H23 = test system: NCI-H23
XF498 = test system: XF498
SF-539 = test system: SF-539
A498 = test system: A498
Malme-3M = test system: Malme-3M
NCI-H226 = test system: NCI-H226
OVCAR-3 = test system: OVCAR-3
HOP-18 = test system: HOP-18
SNB-78 = test system: SNB-78

Measured: GI50

COP1(=O)Oc2ccccc2C(=O)C(C(F)(F)F)(C(F)(F)F)O1 (configuration not stated)
inactive: LOX IMVI > 100 µM | KM12 > 100 µM | RPMI-8226 42.9 µM | NCI-H460 > 100 µM | SNB-19 > 100 µM | MOLT-4 > 100 µM | SK-MEL-28 > 100 µM | UO-31 > 100 µM | CCRF-CEM > 100 µM | RXF 393 > 100 µM | TK-10 > 100 µM | HCT-116 > 100 µM | M14 > 100 µM | KM-20L2 > 100 µM | SR > 100 µM | DMS-273 > 100 µM | OVCAR-4 > 100 µM | NCI-H522 > 100 µM | SW-620 > 100 µM | M19-MEL > 100 µM | SK-MEL-5 > 100 µM | UACC-257 > 100 µM | OVCAR-8 > 100 µM | SF-268 > 100 µM | HOP-62 > 100 µM | LXFL 529 > 100 µM | HT-29 > 100 µM | CAKI-1 50.6 µM | SNB-75 > 100 µM | SN12C > 100 µM | ACHN > 100 µM | EKVX > 100 µM | DMS-114 > 100 µM | A549 > 100 µM | U-251 > 100 µM | OVCAR-5 > 100 µM | K562 > 100 µM | UACC-62 > 100 µM | HL-60 > 100 µM | COLO 205 > 100 µM | SF-295 > 100 µM | SK-MEL-2 > 100 µM | SK-OV-3 > 100 µM | IGROV-1 > 100 µM | 786-0 > 100 µM | HOP-92 56.8 µM | DLD-1 > 100 µM | NCI-H23 > 100 µM | XF498 85.9 µM | SF-539 > 100 µM | A498 > 100 µM
> 100 µM: HCT-15
active: HCC 2998 0.577 µM

COP12(OC)NC(=O)OC1(C(F)(F)F)c1ccccc1O2 (configuration not stated)
inactive: LOX IMVI > 100 µM | KM12 > 100 µM | NCI-H460 > 100 µM | SNB-19 > 100 µM | MOLT-4 > 100 µM | SK-MEL-28 > 100 µM | CCRF-CEM > 100 µM | RXF 393 > 100 µM | TK-10 > 100 µM | HCT-116 > 100 µM | M14 > 100 µM | Malme-3M > 100 µM | DMS-273 > 100 µM | OVCAR-4 > 100 µM | NCI-H522 > 100 µM | NCI-H226 > 100 µM | M19-MEL > 100 µM | SK-MEL-5 > 100 µM | UACC-257 > 100 µM | OVCAR-8 > 100 µM | OVCAR-3 > 100 µM | SF-268 > 100 µM | LXFL 529 > 100 µM | HT-29 > 100 µM | SNB-75 44.9 µM | SN12C > 100 µM | ACHN > 100 µM | HOP-18 52.7 µM | DMS-114 > 100 µM | A549 > 100 µM | K562 > 100 µM | SNB-78 > 100 µM | UACC-62 > 100 µM | HL-60 > 100 µM | SF-295 > 100 µM | SK-MEL-2 > 100 µM | SK-OV-3 > 100 µM | IGROV-1 > 100 µM | 786-0 > 100 µM | DLD-1 > 100 µM | NCI-H23 > 100 µM | XF498 > 100 µM | SF-539 > 100 µM
> 100 µM: HCT-15
